Measured values published in patent publication US20230414578A1, “PHARMACEUTICAL COMPOSITION” (KOWA COMPANY, LTD., priority 2017, published 2023).

What was measured:
[1] = Test Example 1: storage stability of pemafibrate alone (HPLC related substances); format: physicochemical
Procedure: In Test Examples below, measurement was performed through HPLC using an ODS column as a column and an ultraviolet spectrophotometer as a detector. 250 mg of pemafibrate was encapsulated in a polypropylene container (tight container defined in The Japanese Pharmacopoeia, 17th Edition, General Rules), and stored in a dark place at a temperature of 60° C. for 1 month. The amounts of pemafibrate-derived decomposition products (related substances) before the start of storage and after storage at 60° C. for 1 month were evaluated through the following method. The sum of related substance-derived peak areas was evaluated in terms of a ratio (%) to the pemafibrate-derived peak area using an HPLC apparatus, and the ratio was defined as the “Total amount (%) of related substances”.

[2] = Test Example 3: interaction study, visual examination of discoloration; format: physicochemical
Procedure: The states (the presence or absence of discoloration) of the samples before the start of storage and after storage at 60°G for 2 weeks were visually examined.

CC[C@@H](Oc1cccc(CN(CCCOc2ccc(OC)cc2)c2nc3ccccc3o2)c1)C(=O)O [Pemafibrate alone, (2R)-2-[3-([1,3-Benzoxazol-2-yl[3-(4-methoxyphenoxy)propyl]amino]methyl)phenoxy]butanoic acid]
increase in the amount of related substances (in words) ([1]; after storage at 60° C. for 1 month): no substantive increase | Total amount (%) of related substances, Before storage ([1]; before start of storage, sum of related substance peak areas as ratio to pemafibrate peak area, HPLC): <0.05% | Total amount (%) of related substances, After storage at 60° C. for 1 month ([1]; polypropylene tight container, dark place, 60° C., 1 month, HPLC peak area ratio): <0.05% | State, Before storage ([2]; before start of storage): White | State, After storage at 60° C. for 2 weeks ([2]; polypropylene tight container, dark place, 60° C., 2 weeks): White
